One data set has as its system H596 cells. As to the kind of experiment: Alamar Blue proliferation assay, lung cancer cells. Type of data set: cell-based, human. As to conditions: hsa-miR-34a 30 nM, lipid transfection, 72 hours, normalized to NC (100%). From the text: (§1) The inventors assessed the therapeutic effect of hsa-miR-34a for lung cancer by using eight individual lung cancer cell lines. To measure cellular proliferation of lung cancer cells, the following non-small cell lung cancer (NSCLC) cells were used: cells derived from lung adenocarcinoma (A549, H522, Calu-3, HCC2935), cells derived from lung squamous cell carcinoma (H226), cell derived from lung adenosquamous cell carcinoma (H596), cells derived from lung bronchioalveolar carcinoma (H1650), and cells derived from lung large cell carcinoma (H460). Synthetic hsa-miR-34a (Pre-miR™-hsa-miR-34a, Ambion cat. no. AM17100) or negative control (NC) miRNA (Pre-miR™ microRNA Precursor Molecule-Negative Control #2; Ambion cat. no. AM17111) was delivered via lipid-based transfection into A549, H522, H596, Calu-3, HCC2935, H1650, H460 cells and via electroporation into H226 cells.
(§2) Lipid-based reverse transfections were carried out in triplicate according to a published protocol (Ovcharenko et al., 2005) and the following parameters: cells (5,000-12,000 per 96 well), 0.1-0.2 μl Lipofectamine™ 2000 (cat. no. 11668-019, Invitrogen Corp., Carlsbad, Calif., USA) in 20 μl OptiMEM (Invitrogen), 30 nM final concentration of miRNA in 100 μl. Electroporation of H226 cells was carried out using the BioRad Gene Pulser Xcell™ instrument (BioRad Laboratories Inc., Hercules, Calif., USA) with the following settings: 5×10^6 cells with 5 μg miRNA in 200 μl OptiMEM (1.6 μM miRNA), square wave pulse at 250 V for 5 ms. Electroporated H226 cells were seeded at 7,000 cells per 96-well in a total volume of 100 μl. All cells except for Calu-3 cells were harvested 72 hours post transfection or electroporation for assessment of cellular proliferation. Calu-3 cells were harvested 10 days post transfection. Proliferation assays were performed using Alamar Blue (Invitrogen) following the manufacturer's instructions. As a control for inhibition of cellular proliferation, siRNA against the motor protein kinesin 11, also known as Eg5, was used. Eg5 is essential for cellular survival of most eukaryotic cells and a lack thereof leads to reduced cell proliferation and cell death (Weil et al., 2002). siEg5 was used in lipid-based transfection following the same experimental parameters that apply to miRNA. The inventors also used a DNA topoisomerase II inhibitor, etoposide, at a final concentration of 10 μM and 50 μM as an internal standard for the potency of miRNAs. Etoposide is an FDA-approved DNA topoisomerase II inhibitor in the treatment of lung cancer. […] Percent (%) proliferation values from the Alamar Blue assay were normalized to values from cells treated with negative control miRNA. Percent proliferation of hsa-miR-34a treated cells relative to cells treated with negative control miRNA (100%) is shown in Table 7 and in FIG. 1.

The test system of a further data set is HCC2935 cells. As to the kind of experiment: Alamar Blue proliferation assay, lung cancer cells. Type of data set: cell-based, human. The conditions noted are these: hsa-miR-34a 30 nM, lipid transfection, 72 hours, normalized to NC (100%).
Text: as §1, §2

The test system of a further data set is H1650 cells. Put plainly: Alamar Blue proliferation assay, lung cancer cells. The conditions noted are these: hsa-miR-34a 30 nM, lipid transfection, 72 hours, normalized to NC (100%). Type of data set: cell-based, human.
Text: as §1, §2

The next data set concerns Calu-3 cells. As to the kind of experiment: Alamar Blue proliferation assay, lung cancer cells. In kind it is cell-based, human. The conditions noted are these: 10 days post transfection.
Text: as §1, §2

For the next data set, the system named is H460 cells. As to the kind of experiment: Alamar Blue proliferation assay, lung cancer cells. Type of data set: cell-based, human. As to conditions: hsa-miR-34a 30 nM, lipid transfection, 72 hours, normalized to NC (100%).
Text: as §1, §2

A further data set has as its system A549 cells. As to the kind of experiment: Alamar Blue proliferation assay, lung cancer cells. In kind it is cell-based, human. As to conditions: hsa-miR-34a 30 nM, lipid transfection, 72 hours, normalized to NC (100%).
Text: as §1, §2

The subject of a further data set is H522 cells. As to the kind of experiment: Alamar Blue proliferation assay, lung cancer cells. In kind it is cell-based, human. As to conditions: hsa-miR-34a 30 nM, lipid transfection, 72 hours, normalized to NC (100%).
Text: as §1, §2

In data set [1] the test system is PPC-1 prostate cancer xenograft. As to the kind of experiment: Tumor growth of human prostate cancer xenograft. In kind it is in vivo, NOD/SCID mice. Here is the method:
Therefore, hsa-miR-34a is likely to interfere with prostate tumor growth in the animal. To explore this possibility, the therapeutic potential of synthetic hsa-miR-34a miRNA was evaluated in the animal using the PPC-1 human prostate cancer xenograft. 5×10^6 PPC-1 cells per animal were electroporated with 1.6 μM synthetic hsa-miR-34a or negative control miRNA (Pre-miR™-hsa-miR-34a, Ambion cat. no. AM17100; NC, Pre-miR™ microRNA Precursor Molecule-Negative Control #2, Ambion cat. no. AM17111), mixed with BD Matrigel™, (BD Biosciences; San Jose, Calif., USA; cat. no. 356237) in a 1:1 ratio and implanted subcutaneously into the lower back of NOD/SCID mice (Charles River Laboratories, Inc.; Wilmington, Mass., USA). A group of 7 mice was injected with hsa-miR-34a treated PPC-1 cells, and a group of 7 animals was injected with PPC-1 cells treated with negative control miRNA. To maintain steady levels of miRNA, 6.25 μg of each hsa-miR-34a or negative control miRNA conjugated with the lipid-based siPORT™ amine delivery agent (Ambion, Austin, Tex.; cat. no. AM4502) were repeatedly administered on days 7, 13, 20, and 25 via intra-tumoral injections. Given an average mouse weight of 20 g, this dose equals 0.3125 mg/kg. Tumor growth was monitored by taking caliper measurements every 1-2 days for 32 days. Tumor volumes were calculated using the formula, Volume=length×width×width/2, in which the length is greater than the width, and plotted over time (FIG. 7). Standard deviations are shown in the graph. All data points had p values<0.01. p values were as low as 1.86×10^−9 for data obtained on day 22, indicating statistical significance.

As to “hsa-miR-34a: synthetic miRNA; mature sequence UGGCAGUGUCUUAGCUGGUUGUU (MIMAT0000255; SEQ ID NO:1) (synthetic miRNA, chemistry not given here)”, the “% proliferation” value is 73.19% in the data set on H596 cells; 80.19% in the data set on HCC2935 cells; 78.37% in the data set with H1650 cells; 28.51% in the data set with Calu-3 cells (Calu-3, hsa-miR-34a 30 nM, lipid transfection, normalized to NC (100%)); 77.46% in the data set with H460 cells; 75.95% with A549 cells. Also, the “% proliferation” value with H522 cells turned out to be 94.41%. The reduction of proliferation in the data set with Calu-3 cells (Calu-3 cells, 30 nM, relative to negative control miRNA) was determined as 71.49%. This substance registered an average tumor volume in data set [1] (day 32, cells electroporated with 1.6 μM, then 6.25 μg intratumoral on days 7, 13, 20, 25, n=7) of 151 mm^3. For the same substance, the “effect of each single administration on tumor volumes” value in data set [1] (mouse, in vivo) is on record as “acute regression of tumor volumes”. Further, in data set [1] (repeated dosing), the “tumor growth of PPC-1 xenograft” value is “blocked tumor growth”.
